Columns and labels:
[1] = system: male dd Y mice fed a 60% high-fat diet; assay: Glucose tolerance test; type: in vivo; details: YLG 10 mg/kg/day oral; for blood glucose level in the glucose tolerance test (relative value, level immediately before glucose = 100): day 7
Protocol: Twelve-week-old male dd Y mice were divided into 3 groups (n=8). The mice were reared for 1 week such that Group 1 was fed a normal diet (3.85 kcal/g: 20 kcal % of protein, 70 kcal % of carbohydrate, and 10 kcal % of lipid), and Group 2 and Group 3 were fed a 60% high-fat diet (5.24 kcal/g: 20 kcal % of protein, 20 kcal % of carbohydrate, and 60 kcal % of lipid). During the period, the YLG peptide was orally administered to Group 3 daily in an amount of 10 mg/kg/day.
On day 7 after the initiation of feeding, glucose (2 g/kg/p.o.) was administered after fasting for 5 hours. The administration of the YLG peptide on day 7 was performed 2 hours before the glucose administration. Blood was collected from the tail vein immediately before the glucose administration, and 15 minutes, 30 minutes, and 60 minutes after the administration to measure the blood glucose level using a glucose sensor (Nipro Corporation).
(§1) Tables 1 and 2 show changes in blood glucose level in the glucose tolerance test and changes in blood glucose level in the insulin tolerance test, respectively. The numerical values shown in each table are relative values, taking the blood glucose level immediately before the administration of glucose or insulin as 100.

[2] = system: BrdU-positive cells in the hippocampal dentate gyrus; assay: Hippocampal neurogenesis evaluation test using deoxyuridine bromide (BrdU); type: in vivo; details: high-fat diet mice, YLG 10 mg/kg/day oral, day 7; FIG. 5
Protocol: (§2) Four-week-old male dd Y mice were divided into 3 groups (8 mice per group). The mice were reared for 1 week such that Group 1 was fed a normal diet (3.85 kcal/g: 20 kcal % of protein, 70 kcal % of carbohydrate, and 10 kcal % of lipid), and Group 2 and Group 3 were fed a 60% high-fat diet (5.24 kcal/g: 20 kcal % of protein, 20 kcal % of carbohydrate, and 60 kcal % of lipid). During the period, the YLG tripeptide was orally administered to Group 3 daily in an amount of 10 mg/kg/day.
(§3) On day 6 and day 7 after the initiation of feeding, two behavioral tests (episodic memory evaluation test: object recognition test (ORT), and a spatial memory evaluation test: object location test (OLT)), which are known as cognitive function evaluation systems, were performed, as well as a hippocampal neurogenesis evaluation test using deoxyuridine bromide (BrdU). On day 7, the brain hippocampus was removed, and a BDNF mRNA expression level in the hippocampus was measured.
On day 6 after the initiation of feeding, 100 mg/kg of deoxyuridine bromide (BrdU) was intraperitoneally administered to the mice of each group (n=4), and after 24 hours (day 7), perfusion fixation was performed using 4% paraformaldehyde. Next, the whole brain was extracted and frozen to prepare frozen sections on a cryostat. […]

[3] = system: male dd Y mice fed a 60% high-fat diet; assay: Spatial memory evaluation test: object location test (OLT); type: in vivo; details: YLG 10 mg/kg/day oral for 1 week, test on day 7, FIG. 4
Protocol: as §2, §3
The OLT is a behavioral test that evaluates spatial memory, which is part of cognitive functions. […] The difference lies in that the location of only one object is changed in Trial 2. […] The cognitive function of the mice was evaluated using the ratio of the approach time for the object placed at the novel location to the total approach time for both objects as an index. […]

[4] = reported in NPL 4; cited from earlier work
[5] = system: male dd Y mice fed a 60% high-fat diet; assay: Insulin tolerance test; type: in vivo; details: YLG 10 mg/kg/day oral; for blood glucose level in the insulin tolerance test (relative value, level immediately before insulin = 100): day 7
Protocol: As in the glucose tolerance test, twelve-week-old male dd Y mice were divided into 3 groups (n=6-7), and the mice were reared for 1 week such that Group 1 was fed a normal diet, and Group 2 and Group 3 were fed a 60% high-fat diet. During the period, the YLG peptide was orally administered to Group 3 daily in an amount of 10 mg/kg/day. On day 7 after the initiation of feeding, insulin (0.5 U/kg/i.p.) was administered after fasting for 5 hours. The administration of the YLG peptide on day 7 was performed 2 hours before the insulin administration. Blood was collected from the tail vein immediately before insulin administration, and 15 minutes, 30 minutes, and 60 minutes after the administration to measure the blood glucose level using a glucose sensor (Nipro Corporation).
as §1

[6] = system: BDNF mRNA expression in the hippocampus; assay: Brain-derived neurotrophic factor (BDNF) mRNA expression measurement test; type: in vivo; details: high-fat diet mice, YLG 10 mg/kg/day oral, day 7, RT-PCR, standardized with β-actin mRNA; FIG. 6
Protocol: as §2, §3
On day 7 after the initiation of feeding, the mice in each group (n=8) were dissected under anesthesia, and the hippocampus was removed from the brain. The removed hippocampus was stored in RNA later for RNA extraction. […] Then, the brain-derived neurotrophic factor (BDNF) mRNA expression level in the hippocampus was measured by RT-PCR according to a standard method. […]

[7] = system: male dd Y mice fed a 60% high-fat diet; assay: Episodic memory evaluation test: object recognition test (ORT); type: in vivo; details: YLG 10 mg/kg/day oral for 1 week, test on day 7, FIG. 2
Protocol: as §2, §3
The ORT is a behavioral test that evaluates episodic memory, which is part of cognitive functions. […] First, the mouse was placed in a square open field for 5 minutes for habituation. […] In Trial 2, the approach time of the mouse for each object was measured. […] The cognitive function of the mice was evaluated using the ratio of the approach time for the novel object to the total approach time for both objects as an index. […]

Substance: Tyr-Leu-Gly [YLG peptide]
- blood glucose level in the glucose tolerance test (relative value, level immediately before glucose = 100) ([1]; 15 min after glucose 2 g/kg p.o.): 190 ± 14
- blood glucose level in the glucose tolerance test (relative value, level immediately before glucose = 100) ([1]; 30 min after glucose 2 g/kg p.o.): 169 ± 10
- blood glucose level in the glucose tolerance test (relative value, level immediately before glucose = 100) ([1]; 60 min after glucose 2 g/kg p.o.): 113 ± 5
- effect on the increase in blood glucose level caused by high-fat diet intake (glucose tolerance test, in words) [1]: prevented the increase in blood glucose level
- number of BrdU-positive cells in the hippocampal dentate gyrus (hippocampal neurogenesis) [2]: recovered to a level equal to that of the normal diet group
- ratio of the approach time for the object placed at the novel location to the total approach time for both objects (OLT, spatial memory) [3]: recovered to a level equal to that of the normal diet group
- anxiolytic effect [4]: anxiolytic effect
- blood glucose level in the insulin tolerance test (relative value, level immediately before insulin = 100) ([5]; 15 min after insulin 0.5 U/kg i.p.): 90 ± 2
- blood glucose level in the insulin tolerance test (relative value, level immediately before insulin = 100) ([5]; 30 min after insulin 0.5 U/kg i.p.): 78 ± 3
- blood glucose level in the insulin tolerance test (relative value, level immediately before insulin = 100) ([5]; 60 min after insulin 0.5 U/kg i.p.): 70 ± 4
- effect on insulin resistance induced by the high-fat diet (glucose and insulin tolerance tests, in words) [5]: improved insulin resistance induced by the high-fat diet
- BDNF mRNA expression level in the hippocampus [6]: recovered to a level equal to or even greater than that of the normal diet group
- ratio of the approach time for the novel object to the total approach time for both objects (ORT, episodic memory) [7]: recovered to a level equal to that of the normal diet group

Reference: patent US11464824B2, “Peptide capable of improving cognitive function” (THE FOOD SCIENCE INSTITUTE FOUNDATION, priority 2018, dated 2022)
